Source: patent US9096539B2, “Substituted 4,5-dihydro-2H-benzo[e]indazole-9-carboxylates for the treatment of diabetes and related disorders” (Council of Scientific & Industrial Research, priority 2012, dated 2015)
Like-named read-outs stand apart in the source and are kept apart here.

Legend:
[1] = target: T1, human recombinant PTP1B enzyme (Homo sapiens, UniProt P18031); assay: Protein tyrosine phosphatase-1B assay (colorimetric kit BML-AK 822); type: biochemical; settings: read-out: % Inhibition (PTP-1B)
T1 construct: purchased Enzo Life Sciences, USA BML-AK 822
T1 sequence (P18031 1-322 limits assumed): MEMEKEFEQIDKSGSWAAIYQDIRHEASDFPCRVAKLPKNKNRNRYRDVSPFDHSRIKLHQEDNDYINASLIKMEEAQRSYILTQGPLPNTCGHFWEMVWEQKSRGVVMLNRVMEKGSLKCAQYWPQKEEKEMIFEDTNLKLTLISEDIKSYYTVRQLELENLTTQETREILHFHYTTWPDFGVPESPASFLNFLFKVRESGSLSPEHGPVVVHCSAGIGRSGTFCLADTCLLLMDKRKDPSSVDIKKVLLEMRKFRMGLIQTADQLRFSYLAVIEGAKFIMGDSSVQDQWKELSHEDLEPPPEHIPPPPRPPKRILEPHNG
Protocol: Assay was done according to the Kit manufacturers protocol, in brief the reaction was carried out in 96 well flat bottomed microtiter plate by the addition of assay buffer, solution of test compounds and diluted PTP1B enzyme. Enzyme reaction was initiated by addition of 50 μl of warmed 2× substrate then incubated the plate at 30° C. for 30 min. After incubation for 30 min. Reaction was terminated by addition of 25 μl of biomol red reagent and mixed thoroughly by repeated pipetting. […] Volumes and dilution of other component were accordingly as instructed in the manual provided in the kit. PTP1B phosphatase acting on the phosphopeptide substrate and release phosphate. The detection of free phosphate released is based on classic Malachite green assay. After adding biomol red to reaction wells after 30 minutes of incubation as described earlier the plate was incubated for another 20 min to develop the colour. Absorbance was recorded at 620 nm. on a microplate reader.

[2] = Table 5, evaluated at 10 μM concentration

melting point [°C] | inhibition at 10 µM [1, 2] [%] | SMILES | inhibition at 10 µM [1] [%]
228 to 230 | 26.4 | COC(=O)c1c(S(C)(=O)=O)cc(-c2ccc(C)cc2)c2c1-c1cn(-c3ccccc3)nc1CC2 [compound 12, methyl 8-(methylsulfonyl)-2-phenyl-6-(p-tolyl)-4,5-dihydro-2H-benzo[e]indazole-9-carboxylate] | 
159 to 162 | 8 | COC(=O)c1c(SC)cc(-c2ccc(Cl)cc2)c2c1-c1cn(-c3ccccc3)nc1CC2 [compound 2, methyl 6-(4-chlorophenyl)-8-(methylthio)-2-phenyl-4,5-dihydro-2H-benzo[e]indazole-9-carboxylate] | 
182 to 184 | 14.6 | COC(=O)c1c(SC)cc(-c2ccc(F)cc2)c2c1-c1cn(-c3ccccc3)nc1CC2 [compound 8, methyl 6-(4-fluorophenyl)-8-(methylthio)-2-phenyl-4,5-dihydro-2H-benzo[e]indazole-9-carboxylate] | 

SMILES | melting point [°C] | inhibition at 10 µM [1, 2] [%] | inhibition at 10 µM [1] [%]
COC(=O)c1c(SC)cc(-c2ccc3ccc4cccc5ccc2c3c45)c2c1-c1cn(-c3ccccc3)nc1CC2 [compound 9, methyl 8-(methylthio)-2-phenyl-6-(pyren-1-yl)-4,5-dihydro-2H-benzo[e]indazole-9-carboxylate] | 174 to 176 |  | 10.7
COC(=O)c1c(SC)cc(-c2ccc(Br)cc2)c2c1-c1cn(-c3ccccc3)nc1CC2 [compound 1, methyl 6-(4-bromophenyl)-8-(methylthio)-2-phenyl-4,5-dihydro-2H-benzo[e]indazole-9-carboxylate] | 164 to 166 |  | 9.2
